From US20240109865A1, “INDAZOLE COMPOUNDS AS KINASE INHIBITORS” (TYRA BIOSCIENCES, INC., priority 2020, published 2024) come the findings set out here.

One assay has as its target FGFR1-BCR Ba/F3 cells (Homo sapiens, UniProt P11362). The assay can be described thus: Ba/F3 cell viability assay (CellTiter-Glo 2.0), FGFR1-BCR Ba/F3. The class given is cell-based. Particulars: read-out: Ba/F3 Cells FGFR1 (IC50 nM), 48 hours, Cell Titer Glo 2.0. Summed up:
(§1)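 IL3-independent Ba/F3 lines driven by FGFR1-BCR or FGFR3-BAIAP2L1 fusions, in RPMI1640/10% FBS. 9-dose 10-fold series from 30 μM, triplicate, 48 h at 37 °C; viability by CellTiter-Glo 2.0 ATP luminescence relative to DMSO control, IC50 from 4-parameter sigmoidal fit.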
Background: ATP-based viability assays read luminescence as a measure of living cells.

The target of a further assay is FGFR1 (Homo sapiens (Human), UniProt P11362). The assay can be described thus: Kinase assay, binding constants (Kd), kinase-tagged T7 phage, qPCR. In outline:
(§2)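 Competition binding: T7 phage-tagged kinase + biotin-ligand beads + compound (11 pts, 3-fold, 0.9% DMSO). Elution 30 min RT with free ligand; qPCR quantitation. Kd via Hill fit, slope −1.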

The target of the next assay is FGFR2 (Homo sapiens (Human), UniProt P21802). The assay is described as above. In outline: as §2
Chain of FGFR2 (P21802 22-821): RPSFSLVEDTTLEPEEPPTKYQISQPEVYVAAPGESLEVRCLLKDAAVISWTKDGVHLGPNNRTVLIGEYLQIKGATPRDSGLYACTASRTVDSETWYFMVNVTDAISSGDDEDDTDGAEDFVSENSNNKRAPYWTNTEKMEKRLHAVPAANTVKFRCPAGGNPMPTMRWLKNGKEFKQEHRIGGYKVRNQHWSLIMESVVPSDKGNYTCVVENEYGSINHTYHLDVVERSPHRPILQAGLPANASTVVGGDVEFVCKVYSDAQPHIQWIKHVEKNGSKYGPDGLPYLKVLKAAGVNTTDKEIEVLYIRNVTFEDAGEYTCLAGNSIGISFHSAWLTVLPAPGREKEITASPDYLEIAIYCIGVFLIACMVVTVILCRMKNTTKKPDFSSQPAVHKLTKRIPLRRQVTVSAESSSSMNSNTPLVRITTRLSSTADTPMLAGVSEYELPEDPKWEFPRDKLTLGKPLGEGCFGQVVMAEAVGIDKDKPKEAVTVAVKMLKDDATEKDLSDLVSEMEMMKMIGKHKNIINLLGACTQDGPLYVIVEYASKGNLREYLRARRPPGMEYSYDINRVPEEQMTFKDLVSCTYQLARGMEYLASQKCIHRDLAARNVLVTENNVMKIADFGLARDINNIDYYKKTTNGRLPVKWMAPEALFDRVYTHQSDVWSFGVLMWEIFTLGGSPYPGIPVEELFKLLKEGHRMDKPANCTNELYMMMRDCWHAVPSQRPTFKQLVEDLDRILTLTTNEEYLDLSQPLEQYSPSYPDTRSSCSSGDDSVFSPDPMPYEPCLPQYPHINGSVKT
A further assay has as its target FGFR4 (Homo sapiens (Human), UniProt P22455). The assay is described as above. In outline:
as §2

The next assay has as its target FGFR3 (V555M) (Homo sapiens (Human), UniProt P22607, V555M). The assay is described as above. Particulars: V555M mutant. In outline:
as §2

A further assay addresses FGFR3 (Homo sapiens (Human), UniProt P22607). Described as above. In outline:
as §2

Assay [1] concerns the target FGFR3-BAIAP2L1 Ba/F3 cells (Homo sapiens, UniProt P22607). The assay can be described thus: Ba/F3 cell viability assay (CellTiter-Glo 2.0), FGFR3-BAIAP2L1 Ba/F3. Particulars: for Ba/F3 FGFR1/FGFR3 Selectivity: FGFR3 > FGFR1 selectivity ratio in Ba/F3 FGFR fusion cell based assays; for IC50: read-out: Ba/F3 Cells FGFR3 (IC50 nM), FGFR3-BAIAP2L1 Ba/F3 cells, 48 hours, Cell Titer Glo 2.0. The class given is cell-based. Summed up:
as §1

Molecules are shown by their SMILES.

Chain of FGFR1-BCR Ba/F3 cells (P11362 22-822 limits assumed, change not shown): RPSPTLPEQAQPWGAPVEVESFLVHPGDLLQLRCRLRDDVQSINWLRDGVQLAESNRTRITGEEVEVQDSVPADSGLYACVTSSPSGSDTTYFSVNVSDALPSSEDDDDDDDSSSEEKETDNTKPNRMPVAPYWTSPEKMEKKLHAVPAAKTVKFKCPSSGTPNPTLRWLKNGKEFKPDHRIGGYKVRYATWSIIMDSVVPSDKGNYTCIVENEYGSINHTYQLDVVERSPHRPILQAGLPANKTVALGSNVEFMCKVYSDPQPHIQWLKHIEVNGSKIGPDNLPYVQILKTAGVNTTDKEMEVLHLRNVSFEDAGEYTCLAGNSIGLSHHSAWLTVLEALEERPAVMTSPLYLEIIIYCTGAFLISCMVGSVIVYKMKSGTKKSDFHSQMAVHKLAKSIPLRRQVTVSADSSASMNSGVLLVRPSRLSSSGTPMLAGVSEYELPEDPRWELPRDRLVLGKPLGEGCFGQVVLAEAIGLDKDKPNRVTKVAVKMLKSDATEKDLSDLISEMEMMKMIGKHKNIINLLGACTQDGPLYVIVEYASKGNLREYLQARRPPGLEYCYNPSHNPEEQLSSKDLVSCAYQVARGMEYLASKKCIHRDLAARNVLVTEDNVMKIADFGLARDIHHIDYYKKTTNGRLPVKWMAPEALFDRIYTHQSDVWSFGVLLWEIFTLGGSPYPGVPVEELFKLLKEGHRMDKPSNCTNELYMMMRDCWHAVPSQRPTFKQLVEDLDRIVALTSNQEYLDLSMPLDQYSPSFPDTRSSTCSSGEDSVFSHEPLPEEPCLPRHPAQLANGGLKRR
Chain of FGFR1 (P11362 22-822): as the sequence (P11362 22-822 limits assumed, change not shown) above
Chain of FGFR3 (V555M) (P22607 23-806 V555M): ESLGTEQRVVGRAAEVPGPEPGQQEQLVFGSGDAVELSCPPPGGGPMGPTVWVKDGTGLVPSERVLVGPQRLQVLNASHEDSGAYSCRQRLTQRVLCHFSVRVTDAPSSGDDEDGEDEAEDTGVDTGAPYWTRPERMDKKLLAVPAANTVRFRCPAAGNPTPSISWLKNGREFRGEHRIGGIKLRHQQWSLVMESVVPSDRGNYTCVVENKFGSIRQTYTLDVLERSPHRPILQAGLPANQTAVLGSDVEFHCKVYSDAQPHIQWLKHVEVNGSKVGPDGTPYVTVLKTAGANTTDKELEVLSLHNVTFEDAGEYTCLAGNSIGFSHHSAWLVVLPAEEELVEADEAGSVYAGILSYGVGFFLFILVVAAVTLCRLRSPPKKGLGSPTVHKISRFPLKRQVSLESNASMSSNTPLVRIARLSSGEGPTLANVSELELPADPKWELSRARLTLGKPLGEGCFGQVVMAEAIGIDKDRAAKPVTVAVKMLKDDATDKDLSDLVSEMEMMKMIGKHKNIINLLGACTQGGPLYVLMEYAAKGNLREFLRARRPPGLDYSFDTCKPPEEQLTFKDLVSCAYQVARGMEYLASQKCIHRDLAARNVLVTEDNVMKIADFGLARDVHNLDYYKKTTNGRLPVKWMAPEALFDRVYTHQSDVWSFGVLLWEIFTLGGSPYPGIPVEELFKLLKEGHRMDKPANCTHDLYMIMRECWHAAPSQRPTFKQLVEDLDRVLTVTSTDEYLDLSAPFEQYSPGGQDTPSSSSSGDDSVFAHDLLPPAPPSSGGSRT
Chain of FGFR3 (P22607 23-806): as the sequence (P22607 23-806 V555M) above, with M533V counted along it
Chain of FGFR3-BAIAP2L1 Ba/F3 cells (P22607 23-806 limits assumed, change not shown): as the sequence (P22607 23-806 V555M) above, with M533V counted along it
Chain of FGFR4 (P22455 22-802): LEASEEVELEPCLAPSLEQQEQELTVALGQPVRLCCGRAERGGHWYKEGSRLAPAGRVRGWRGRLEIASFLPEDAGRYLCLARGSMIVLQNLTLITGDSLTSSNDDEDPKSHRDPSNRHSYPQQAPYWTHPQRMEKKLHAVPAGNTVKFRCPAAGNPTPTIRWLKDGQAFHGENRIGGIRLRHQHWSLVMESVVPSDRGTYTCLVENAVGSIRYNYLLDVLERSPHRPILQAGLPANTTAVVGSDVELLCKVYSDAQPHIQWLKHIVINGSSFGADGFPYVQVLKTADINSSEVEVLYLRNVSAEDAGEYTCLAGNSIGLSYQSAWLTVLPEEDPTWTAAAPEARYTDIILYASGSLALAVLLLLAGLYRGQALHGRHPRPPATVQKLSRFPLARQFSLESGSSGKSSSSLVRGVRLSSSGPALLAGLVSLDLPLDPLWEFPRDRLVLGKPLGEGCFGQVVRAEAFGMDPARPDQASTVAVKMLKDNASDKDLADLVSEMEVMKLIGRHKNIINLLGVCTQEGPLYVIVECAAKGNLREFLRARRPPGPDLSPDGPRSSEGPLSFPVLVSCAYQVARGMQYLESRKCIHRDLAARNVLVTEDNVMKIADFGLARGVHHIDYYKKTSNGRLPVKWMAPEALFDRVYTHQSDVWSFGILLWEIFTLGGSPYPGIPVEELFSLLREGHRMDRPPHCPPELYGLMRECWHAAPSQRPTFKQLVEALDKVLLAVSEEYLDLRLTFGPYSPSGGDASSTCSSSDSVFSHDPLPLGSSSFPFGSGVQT

What is called Kd is the free concentration of one partner at which half of the binding sites on the other are occupied at equilibrium, for simple one-to-one binding. A low value points to a tighter complex. Regarding `CC(C)OC(=O)N1CCCC2(C1)CN(c1ncc(-c3n[nH]c4ccc(O[C@H](C)c5c(Cl)cncc5Cl)cc34)cn1)C2` [Example 135, isopropyl 2-[5-[5-[(1R)-1-(3,5-dichloro-4-pyridyl)ethoxy]-1H-indazol-3-yl]pyrimidin-2-yl]-2,8-diazaspiro[3.5]nonane-8-carboxylate], the IC50 at FGFR1-BCR Ba/F3 cells is greater than 300 nM; in assay [1], 100 to 300 nM. Also, the Kd is greater than 300 nM at FGFR1; greater than 300 nM at FGFR2; 1 to 20 nM on FGFR4; 1 to 20 nM at FGFR3 (V555M); 20 to 100 nM at FGFR3. Besides, the “Ba/F3 FGFR1/FGFR3 Selectivity” value in assay [1] is given as 9.
In the case of `COC(=O)N1CCC2(CC1)CN(c1ncc(-c3n[nH]c4ccc(O[C@H](C)c5c(Cl)cncc5Cl)cc34)cn1)C2` [Example 136, methyl 2-[5-[5-[(1R)-1-(3,5-dichloro-4-pyridyl)ethoxy]-1H-indazol-3-yl]pyrimidin-2-yl]-2,7-diazaspiro[3.5]nonane-7-carboxylate], the IC50 on FGFR1-BCR Ba/F3 cells is greater than 300 nM; in assay [1] it was 20 to 100 nM. The Kd is 20 to 100 nM at FGFR1; 1 to 20 nM on FGFR2; 1 to 20 nM on FGFR4; 1 to 20 nM at FGFR3 (V555M); 1 to 20 nM on FGFR3. In addition, in assay [1], the “Ba/F3 FGFR1/FGFR3 Selectivity” value is 6.
For the compound `C[C@@H](Oc1ccc2[nH]nc(-c3cnc(N4CC5(CCN(S(C)(=O)=O)CC5)C4)nc3)c2c1)c1c(Cl)cncc1Cl` [Example 137, 5-[(1R)-1-(3,5-dichloro-4-pyridyl)ethoxy]-3-[2-(7-methylsulfonyl-2,7-diazaspiro[3.5]nonan-2-yl)pyrimidin-5-yl]-1H-indazole], the IC50 was in the range of 100 to 300 nM on FGFR1-BCR Ba/F3 cells and 1 to 20 nM in assay [1]. In addition, the equilibrium dissociation constant (Kd) at FGFR1 fell in the range of 20 to 100 nM; at FGFR2 it was 20 to 100 nM; on FGFR4, 1 to 20 nM; at FGFR3 (V555M), 1 to 20 nM; at FGFR3 it was 1 to 20 nM. Besides, the “Ba/F3 FGFR1/FGFR3 Selectivity” value in assay [1] is recorded as 11.
For `COC(=O)N1CCCC2(C1)CN(c1ncc(-c3n[nH]c4ccc(O[C@H](C)c5c(Cl)cncc5Cl)cc34)cn1)C2` [Example 138, methyl 2-[5-[5-[(1R)-1-(3,5-dichloro-4-pyridyl)ethoxy]-1H-indazol-3-yl]pyrimidin-2-yl]-2,8-diazaspiro[3.5]nonane-8-carboxylate], the IC50 at FGFR1-BCR Ba/F3 cells is greater than 300 nM; in assay [1], 20 to 100 nM. Besides, the dissociation constant Kd was in the range of 20 to 100 nM on FGFR1; 20 to 100 nM on FGFR2; 1 to 20 nM at FGFR4; 1 to 20 nM on FGFR3 (V555M); 1 to 20 nM on FGFR3. For the same compound, the “Ba/F3 FGFR1/FGFR3 Selectivity” value in assay [1] is listed as 8.
Take `Cc1cncc(C)c1[C@H](C)Oc1ccc2[nH]nc(-c3ccc(N4CC5(C4)CN(S(C)(=O)=O)C5)nc3)c2c1` [Example 140, 5-[(1S)-1-(3,5-dimethyl-4-pyridyl)ethoxy]-3-[6-(2-methylsulfonyl-2,6-diazaspiro[3.3]heptan-6-yl)-3-pyridyl]-1H-indazole]: the IC50 on FGFR1-BCR Ba/F3 cells was greater than 300 nM; in assay [1], 100 to 300 nM. Moreover, the dissociation constant (Kd) was greater than 300 nM on FGFR1; greater than 300 nM on FGFR2; greater than 300 nM at FGFR4; 1 to 20 nM at FGFR3 (V555M); 20 to 100 nM at FGFR3. The “Ba/F3 FGFR1/FGFR3 Selectivity” value in assay [1] is given as 19.
Take `Cc1cnnc(C)c1[C@@H](C)Oc1ccc2[nH]nc(-c3cnc(N4CC5(CCS(=O)(=O)C5)C4)nc3)c2c1` [Example 141, 2-[5-[5-[(1R)-1-(3,5-dimethylpyridazin-4-yl)ethoxy]-1H-indazol-3-yl]pyrimidin-2-yl]-6λ^6-thia-2-azaspiro[3.4]octane 6,6-dioxide]: the IC50 (at FGFR1-BCR Ba/F3 cells; in assay [1]) was greater than 300 nM in each case. Further, the equilibrium dissociation constant (Kd) at FGFR1 was in the range of 20 to 100 nM; at FGFR2, 20 to 100 nM; at FGFR4 it was 1 to 20 nM; on FGFR3 (V555M), 1 to 20 nM; at FGFR3 it was 1 to 20 nM. In assay [1], the “Ba/F3 FGFR1/FGFR3 Selectivity” value is 3.
As to `COC(=O)N1CC2(C1)CN(c1ncc(-c3n[nH]c4ccc(O[C@H](C)c5c(C)cnnc5C)cc34)cn1)C2` [Example 143, methyl 6-[5-[5-[(1R)-1-(3,5-dimethylpyridazin-4-yl)ethoxy]-1H-indazol-3-yl]pyrimidin-2-yl]-2,6-diazaspiro[3.3]heptane-2-carboxylate], the values for the IC50 (on FGFR1-BCR Ba/F3 cells; in assay [1]) were greater than 300 nM and 100 to 300 nM, respectively. In addition, the Kd lay in the range of 100 to 300 nM at FGFR1; 20 to 100 nM at FGFR2; 1 to 20 nM on FGFR4; 1 to 20 nM at FGFR3 (V555M); 1 to 20 nM on FGFR3. Besides, the “Ba/F3 FGFR1/FGFR3 Selectivity” value in assay [1] is listed as 14.
Take `Cc1cnnc(C)c1[C@@H](C)Oc1ccc2[nH]nc(-c3ccc(N4CC5(CCS(=O)(=O)C5)C4)nc3)c2c1` [Example 144, 2-[5-[5-[(1R)-1-(3,5-dimethylpyridazin-4-yl)ethoxy]-1H-indazol-3-yl]-2-pyridyl]-6λ^6-thia-2-azaspiro[3.4]octane 6,6-dioxide]: the results for the IC50 (at FGFR1-BCR Ba/F3 cells; in assay [1]) were greater than 300 nM and 20 to 100 nM, respectively. The dissociation constant (Kd) on FGFR1, at FGFR2, on FGFR4, on FGFR3 (V555M) and on FGFR3 was 1 to 20 nM each time. For the same compound, the “Ba/F3 FGFR1/FGFR3 Selectivity” value in assay [1] amounted to 33.
As for `Cc1cnnc(C)c1[C@H](C)Oc1ccc2[nH]nc(-c3ccc(N4CC5(CCS(=O)(=O)C5)C4)nc3)c2c1` [Example 145, 2-[5-[5-[(1S)-1-(3,5-dimethylpyridazin-4-yl)ethoxy]-1H-indazol-3-yl]-2-pyridyl]-6λ^6-thia-2-azaspiro[3.4]octane 6,6-dioxide], the IC50 (on FGFR1-BCR Ba/F3 cells; in assay [1]) was greater than 300 nM each time. Further, the Kd at FGFR1 is greater than 300 nM; at FGFR2 it was 20 to 100 nM; at FGFR4, 100 to 300 nM; on FGFR3 (V555M) it was 1 to 20 nM; on FGFR3 it was 20 to 100 nM. In addition, the “Ba/F3 FGFR1/FGFR3 Selectivity” value in assay [1] was 2.
As to `CCOC(=O)N1CC2(C1)CN(c1ncc(-c3n[nH]c4ccc(O[C@H](C)c5c(C)cnnc5C)cc34)cn1)C2` [Example 146, ethyl 6-[5-[5-[(1R)-1-(3,5-dimethylpyridazin-4-yl)ethoxy]-1H-indazol-3-yl]pyrimidin-2-yl]-2,6-diazaspiro[3.3]heptane-2-carboxylate], the IC50 is greater than 300 nM at FGFR1-BCR Ba/F3 cells and 100 to 300 nM in assay [1]. Also, the Kd at FGFR1 is 100 to 300 nM; on FGFR2, 20 to 100 nM; at FGFR4 it was 1 to 20 nM; on FGFR3 (V555M) it was 1 to 20 nM; on FGFR3, 1 to 20 nM. The “Ba/F3 FGFR1/FGFR3 Selectivity” value in assay [1] is recorded as 15.
Consider `Cc1cnnc(C)c1[C@@H](C)Oc1ccc2[nH]nc(-c3ccc(N4CC5(C4)CN(S(C)(=O)=O)C5)nc3)c2c1` [Example 148, 5-[(1R)-1-(3,5-dimethylpyridazin-4-yl)ethoxy]-3-[6-(2-methylsulfonyl-2,6-diazaspiro[3.3]heptan-6-yl)-3-pyridyl]-1H-indazole], for which the IC50 was greater than 300 nM on FGFR1-BCR Ba/F3 cells and 20 to 100 nM in assay [1]. Moreover, the dissociation constant (Kd) at FGFR1, on FGFR2, at FGFR4, at FGFR3 (V555M) and at FGFR3 was 1 to 20 nM each time. Moreover, in assay [1], the “Ba/F3 FGFR1/FGFR3 Selectivity” value is reported as 16.
For the compound `C[C@H](Oc1ccc2[nH]nc(-c3ccc(N4CC5(C4)CN(S(C)(=O)=O)C5)nc3)c2c1)c1c(Cl)cncc1Cl` [Example 160, 5-[(1S)-1-(3,5-dichloro-4-pyridyl)ethoxy]-3-[6-(2-methylsulfonyl-2,6-diazaspiro[3.3]heptan-6-yl)-3-pyridyl]-1H-indazole], the IC50 on FGFR1-BCR Ba/F3 cells is greater than 300 nM; in assay [1], 100 to 300 nM. Further, the dissociation constant Kd on FGFR1 is greater than 300 nM; at FGFR2 it was 100 to 300 nM; on FGFR4, 100 to 300 nM; on FGFR3 (V555M) it was 1 to 20 nM; at FGFR3, 20 to 100 nM. For the same compound, the “Ba/F3 FGFR1/FGFR3 Selectivity” value in assay [1] amounted to 17.
For the compound `C[C@@H](Oc1ccc2[nH]nc(-c3ccc(N4CC5(CCCN(S(C)(=O)=O)C5)C4)nc3)c2c1)c1c(Cl)cncc1Cl` [Example 162, 5-[(1R)-1-(3,5-dichloro-4-pyridyl)ethoxy]-3-[6-(8-methylsulfonyl-2,8-diazaspiro[3.5]nonan-2-yl)-3-pyridyl]-1H-indazole], the IC50 on FGFR1-BCR Ba/F3 cells lay within 100 to 300 nM; in assay [1], 1 to 20 nM. Moreover, the Kd fell in the range of 20 to 100 nM at FGFR1; 1 to 20 nM on FGFR2; 1 to 20 nM on FGFR4; 1 to 20 nM on FGFR3 (V555M); 1 to 20 nM at FGFR3. In addition, in assay [1], the “Ba/F3 FGFR1/FGFR3 Selectivity” value is recorded as 12.
In the case of `C[C@@H](Oc1ccc2[nH]nc(-c3ccc(N4CC5(CCN(S(C)(=O)=O)C5)C4)nc3)c2c1)c1c(Cl)cncc1Cl` [Example 163, 5-[(1R)-1-(3,5-dichloro-4-pyridyl)ethoxy]-3-[6-(7-methylsulfonyl-2,7-diazaspiro[3.4]octan-2-yl)-3-pyridyl]-1H-indazole], the IC50 lay within 20 to 100 nM on FGFR1-BCR Ba/F3 cells and 1 to 20 nM in assay [1]. Moreover, the Kd on FGFR1, on FGFR2, at FGFR4, at FGFR3 (V555M) and at FGFR3 was 1 to 20 nM throughout. For the same compound, the “Ba/F3 FGFR1/FGFR3 Selectivity” value in assay [1] was determined as 17.
